Measured values as given in US20020137929A1, “1 - (3-heterocyclylphenyl) isothiourea, -isourea, -guanidine and -amidine herbicidal agents” (Intellectual Property Department, BASF Aktiengesellschaft, priority 1998, published 2002).

Columns and labels:
[1] = test system: ABUTH (Velvetleaf); assay: Postemergence herbicidal evaluation; format: in vivo, Abutilon theophrasti; details: for ABUTH herbicidal rating: postemergence
Outline: (§1)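 Compound is applied as a foliar spray to seedlings about two weeks old, formulated in equal parts acetone and water with 0.5% TWEEN 20 and delivered at 40 psi to give about 0.0156–0.500 kg per hectare. Injury is rated visually 0–9 after four to five weeks.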

[2] = test system: CHEAL (Lambsquarters, Common); assay: Postemergence herbicidal evaluation; format: in vivo, Chenopodium album; details: for CHEAL herbicidal rating: postemergence
Outline: as §1

[3] = test system: SETVI (Foxtail, Green); assay: Postemergence herbicidal evaluation; format: in vivo, Setaria viridis; details: for SETVI herbicidal rating: postemergence
Outline: as §1

[4] = test system: GLXMAW (Soybean, Williams); assay: Postemergence herbicidal evaluation; format: in vivo, Glycine max, (L.) Merr. cv Williams; details: for GLXMAW herbicidal rating: postemergence
Outline: as §1

[5] = test system: ORYSAT (Rice, Tebonnet); assay: Postemergence herbicidal evaluation; format: in vivo, Oryza sativa, (L.) Tebonnet; details: for ORYSAT herbicidal rating: postemergence
Outline: as §1

[6] = test system: TRZAWR (Wheat, Winter, cv Riband); assay: Postemergence herbicidal evaluation; format: in vivo, Triticum aestivum; details: for TRZAWR herbicidal rating: postemergence
Outline: as §1

[7] = test system: ZEAMX (Corn, Field); assay: Postemergence herbicidal evaluation; format: in vivo, Zea mays; details: for ZEAMX herbicidal rating: postemergence
Outline: as §1

[8] = test system: AMBEL (Ragweed, Common); assay: Preemergence herbicidal evaluation; format: in vivo, Ambrosia artemisifolia; details: rated 4-5 weeks after treatment
Outline: (§2)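 Greenhouse preemergence test: seed-soil mix sown on ~1 inch soil; aqueous acetone spray at equivalent of ~0.0156–0.500 kg/ha; greenhouse-held and watered; scored 0–9 visually at 4–5 weeks.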

[9] = test system: GALAP (Galium); assay: Preemergence herbicidal evaluation; format: in vivo, Galium aparine; details: rated 4-5 weeks after treatment
Outline: as §2

[10] = test system: SETVI (Foxtail, Green); assay: Preemergence herbicidal evaluation; format: in vivo, Setaria viridis; details: rated 4-5 weeks after treatment
Outline: as §2

[11] = test system: CYPIR (Rice Flatsedge); assay: Preemergence weed control under flooded paddy conditions; format: in vivo, Cyperus iria; details: rated 3-4 weeks after treatment
Outline: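 Flooded-pot preemergence screen with silt loam and seeds in the upper 0.5 cm. Dose about 0.0313 to 0.500 kg/ha, delivered into flood water; visual 0-9 score after 3 to 4 weeks.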

[12] = test system: ECHORC (Watergrass (Calif.)); assay: Postemergence weed control under flooded paddy conditions; format: in vivo, Echinochloa oryzoides; details: postemergence weeds
Outline: (§3)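 With weeds 3 to 5 cm tall and rice at the 1.5 to 2.5 leaf stage, containers were flooded and water held 1.5 to 3 cm above soil. Compounds in 50/50 v/v aqueous/acetone went into the flood water at about 0.0313 to 0.500 kg/ha a.i. Effects were visually rated 0–9 against controls after three to four weeks in the greenhouse.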

[13] = test system: CYPSE (Flatsedge); assay: as above; format: in vivo, Cyperus serotinus; details: postemergence weeds
Outline: as §3

[14] = test system: SAGPY (Arrowhead (Pygmaea)); assay: as above; format: in vivo, Sagittaria pygmaea; details: postemergence weeds
Outline: as §3

[15] = Rate 0.0313 kg/ha, rated 3 to 4 weeks after treatment
[16] = Rate 0.0625 kg/ha, rated 3 to 4 weeks after treatment
[17] = Rate 0.1250 kg/ha, rated 3 to 4 weeks after treatment
[18] = Rate 0.2500 kg/ha, rated 3 to 4 weeks after treatment
[19] = rate 0.0313 kg/ha, 3-4 weeks after treatment
[20] = rate 0.0625 kg/ha, 3-4 weeks after treatment
[21] = rate 0.1250 kg/ha, 3-4 weeks after treatment
[22] = rate 0.2500 kg/ha, 3-4 weeks after treatment

Structure (SMILES): CCOC(=O)[C@H](Cc1ccccc1)N1C(=O)CSC1=Nc1cc(-n2c(=O)cc(C(F)(F)F)n(C)c2=O)c(F)cc1Cl [Compound 80, Ethyl α-benzyl-2-{{2-chloro-5-[3,6-dihydro-3-methyl-2,6-dioxo-4-(trifluoromethyl)-1(2H)-pyrimidinyl]-4-fluorophenyl}imino}-4-oxo-3-thiazolidineacetate, L-]
- ABUTH herbicidal rating ([1]; rate 0.0158 kg/ha): 9.0
- ABUTH herbicidal rating ([1]; rate 0.0315 kg/ha): 9.0
- ABUTH herbicidal rating ([1]; rate 0.0630 kg/ha): 9.0
- CHEAL herbicidal rating ([2]; rate 0.0158 kg/ha): 9.0
- CHEAL herbicidal rating ([2]; rate 0.0315 kg/ha): 9.0
- CHEAL herbicidal rating ([2]; rate 0.0630 kg/ha): 9.0
- SETVI herbicidal rating ([3]; rate 0.0158 kg/ha): 1.0
- SETVI herbicidal rating ([3]; rate 0.0315 kg/ha): 2.0
- SETVI herbicidal rating ([3]; rate 0.0630 kg/ha): 4.0
- GLXMAW herbicidal rating ([4]; rate 0.0158 kg/ha): 4.5
- GLXMAW herbicidal rating ([4]; rate 0.0315 kg/ha): 5.5
- GLXMAW herbicidal rating ([4]; rate 0.0630 kg/ha): 6.5
- ORYSAT herbicidal rating ([5]; rate 0.0158 kg/ha): 3.5
- ORYSAT herbicidal rating ([5]; rate 0.0315 kg/ha): 3.5
- ORYSAT herbicidal rating ([5]; rate 0.0630 kg/ha): 4.0
- TRZAWR herbicidal rating ([6]; rate 0.0158 kg/ha): 3.5
- TRZAWR herbicidal rating ([6]; rate 0.0315 kg/ha): 3.5
- TRZAWR herbicidal rating ([6]; rate 0.0630 kg/ha): 4.0
- ZEAMX herbicidal rating ([7]; rate 0.0158 kg/ha): 5.0
- ZEAMX herbicidal rating ([7]; rate 0.0315 kg/ha): 5.0
- ZEAMX herbicidal rating ([7]; rate 0.0630 kg/ha): 5.5
- Preemergence herbicidal rating AMBEL ([8]; rate 0.0313 kg/ha): 0.0
- Preemergence herbicidal rating AMBEL ([8]; rate 0.0625 kg/ha): 2.0
- Preemergence herbicidal rating AMBEL ([8]; rate 0.1250 kg/ha): 9.0
- Preemergence herbicidal rating AMBEL ([8]; rate 0.2500 kg/ha): 7.0
- Preemergence herbicidal rating GALAP ([9]; rate 0.0156 kg/ha): 0.0
- Preemergence herbicidal rating GALAP ([9]; rate 0.0313 kg/ha): 0.0
- Preemergence herbicidal rating GALAP ([9]; rate 0.0625 kg/ha): 0.0
- Preemergence herbicidal rating GALAP ([9]; rate 0.1250 kg/ha): 4.0
- Preemergence herbicidal rating GALAP ([9]; rate 0.2500 kg/ha): 4.0
- Preemergence herbicidal rating SETVI ([10]; rate 0.0156 kg/ha): 0.0
- Preemergence herbicidal rating SETVI ([10]; rate 0.0313 kg/ha): 0.0
- Preemergence herbicidal rating SETVI ([10]; rate 0.0625 kg/ha): 1.0
- Preemergence herbicidal rating SETVI ([10]; rate 0.1250 kg/ha): 7.0
- Preemergence herbicidal rating SETVI ([10]; rate 0.2500 kg/ha): 7.0
- CYPIR herbicidal effect rating ([11]; 0.0313 kg/ha): 5.0
- CYPIR herbicidal effect rating ([11]; 0.0625 kg/ha): 7.0
- CYPIR herbicidal effect rating ([11]; 0.1250 kg/ha): 7.0
- CYPIR herbicidal effect rating ([11]; 0.2500 kg/ha): 7.0
- Herbicidal rating ECHORC [12, 15]: 9.0
- Herbicidal rating ECHORC [12, 16]: 9.0
- Herbicidal rating ECHORC [12, 17]: 9.0
- Herbicidal rating ECHORC [12, 18]: 9.0
- Herbicidal rating CYPSE [13, 15]: 3.0
- Herbicidal rating CYPSE [13, 16]: 3.0
- Herbicidal rating CYPSE [13, 17]: 3.0
- Herbicidal rating CYPSE [13, 18]: 4.0
- Herbicidal rating SAGPY [14, 15]: 0.0
- Herbicidal rating SAGPY [14, 16]: 0.0
- Herbicidal rating SAGPY [14, 17]: 0.0
- Herbicidal rating SAGPY [14, 18]: 0.0

Structure (SMILES): Cn1c(C(F)(F)F)cc(=O)n(-c2cc(N=C3NC(=O)CS3)c(Cl)cc2F)c1=O [Compound 39, 3-{4-Chloro-2-fluoro-5-[(4-oxo-2-thiazolidinylidene)amino]phenyl}-1-methyl-6-(trifluoromethyl)-2,4(1H,3H)-pyrimidinedione]
- Postemergence herbicidal rating ABUTH ([1]; Rate 0.0158 kg/ha): 0.0
- Postemergence herbicidal rating ABUTH ([1]; Rate 0.0315 kg/ha): 9.0
- Postemergence herbicidal rating ABUTH ([1]; Rate 0.0630 kg/ha): 9.0
- Postemergence herbicidal rating CHEAL ([2]; Rate 0.0158 kg/ha): 1.0
- Postemergence herbicidal rating CHEAL ([2]; Rate 0.0315 kg/ha): 1.0
- Postemergence herbicidal rating CHEAL ([2]; Rate 0.0630 kg/ha): 1.0
- Postemergence herbicidal rating SETVI ([3]; Rate 0.0158 kg/ha): 0.0
- Postemergence herbicidal rating SETVI ([3]; Rate 0.0315 kg/ha): 0.0
- Postemergence herbicidal rating SETVI ([3]; Rate 0.0630 kg/ha): 0.0
- Postemergence herbicidal rating GLXMAW ([4]; Rate 0.0158 kg/ha): 4.5
- Postemergence herbicidal rating GLXMAW ([4]; Rate 0.0315 kg/ha): 5.0
- Postemergence herbicidal rating GLXMAW ([4]; Rate 0.0630 kg/ha): 5.0
- Postemergence herbicidal rating ORYSAT ([5]; Rate 0.0158 kg/ha): 1.5
- Postemergence herbicidal rating ORYSAT ([5]; Rate 0.0315 kg/ha): 1.5
- Postemergence herbicidal rating ORYSAT ([5]; Rate 0.0630 kg/ha): 2.0
- Postemergence herbicidal rating TRZAWR ([6]; Rate 0.0158 kg/ha): 2.0
- Postemergence herbicidal rating TRZAWR ([6]; Rate 0.0315 kg/ha): 1.5
- Postemergence herbicidal rating TRZAWR ([6]; Rate 0.0630 kg/ha): 2.5
- Postemergence herbicidal rating ZEAMX ([7]; Rate 0.0158 kg/ha): 3.0
- Postemergence herbicidal rating ZEAMX ([7]; Rate 0.0315 kg/ha): 3.0
- Postemergence herbicidal rating ZEAMX ([7]; Rate 0.0630 kg/ha): 3.0
- Preemergence herbicidal rating AMBEL ([8]; rate 0.0156 kg/ha): 0.0
- Preemergence herbicidal rating AMBEL ([8]; rate 0.0313 kg/ha): 0.0
- Preemergence herbicidal rating AMBEL ([8]; rate 0.0625 kg/ha): 0.0
- Preemergence herbicidal rating AMBEL ([8]; rate 0.1250 kg/ha): 6.0
- Preemergence herbicidal rating AMBEL ([8]; rate 0.2500 kg/ha): 7.0
- Preemergence herbicidal rating GALAP ([9]; rate 0.0156 kg/ha): 0.0
- Preemergence herbicidal rating GALAP ([9]; rate 0.0313 kg/ha): 0.0
- Preemergence herbicidal rating GALAP ([9]; rate 0.0625 kg/ha): 0.0
- Preemergence herbicidal rating GALAP ([9]; rate 0.1250 kg/ha): 6.0
- Preemergence herbicidal rating GALAP ([9]; rate 0.2500 kg/ha): 9.0
- Preemergence herbicidal rating SETVI ([10]; rate 0.0156 kg/ha): 0.0
- Preemergence herbicidal rating SETVI ([10]; rate 0.0313 kg/ha): 0.0
- Preemergence herbicidal rating SETVI ([10]; rate 0.0625 kg/ha): 0.0
- Preemergence herbicidal rating SETVI ([10]; rate 0.1250 kg/ha): 0.0
- Preemergence herbicidal rating SETVI ([10]; rate 0.2500 kg/ha): 2.0
- Herbicidal rating CYPIR ([11]; 0.0313 kg/ha): 0.0
- Herbicidal rating CYPIR ([11]; 0.0625 kg/ha): 0.0
- Herbicidal rating CYPIR ([11]; 0.1250 kg/ha): 0.0
- Herbicidal rating CYPIR ([11]; 0.2500 kg/ha): 0.0
- Herbicidal rating ECHORC [12, 19]: 0.0
- Herbicidal rating ECHORC [12, 20]: 0.0
- Herbicidal rating ECHORC [12, 21]: 2.0
- Herbicidal rating ECHORC [12, 22]: 3.0
- Herbicidal rating CYPSE [13, 19]: 0.0
- Herbicidal rating CYPSE [13, 20]: 0.0
- Herbicidal rating CYPSE [13, 21]: 0.0
- Herbicidal rating CYPSE [13, 22]: 0.0
- Herbicidal rating SAGPY [14, 19]: 0.0
- Herbicidal rating SAGPY [14, 20]: 0.0
- Herbicidal rating SAGPY [14, 21]: 0.0
- Herbicidal rating SAGPY [14, 22]: 4.0
